Reference: patent US20130143886A1, “METHODS FOR PRESERVING AND/OR INCREASING RENAL FUNCTION USING XANTHINE OXIDOREDUCTASE INHIBITORS” (priority 2006, published 2013)
Several values for one entry are separate records, joined by “and”; a condition that tells them apart may be missing. Identical values can stand only once. Entries after “also recorded” stand apart in the source; their conditions may differ.

Assays:
[1] = system: human subjects with a history of nephrolithiasis; assay: Renal function measures and serum urate in 4-week double-blind phase 2 study and open-label long-term febuxostat study; assay type: in vivo; details: for Measured Creatinine Clearance / Serum Creatinine / Urine Uric Acid / Estimated GFR / Serum Urate: individual subjects
Procedure: (1) febuxostat 40 mg per day, (2) febuxostat 80 mg per day, (3) febuxostat 120 mg per day, or (4) placebo. Subjects completing the double-blind study entered an open-label, long-term study and began treatment with 80 mg febuxostat per day. Febuxostat doses could be titrated over the initial 6 months to 40 mg or 120 mg febuxostat per day based on the subjects' serum urate levels and the occurrence of adverse events. In the study subset, a post-hoc analysis of nephrolithiasis outcome in the study subjects (n=13) who had received febuxostat for ≧30 months. In the event of an occurrence of renal calculus formation, all such stones were analyzed for mineral content. The following were the criteria for inclusion in the study: (1) a history or presence of gout as defined by the American Rheumatism Association Preliminary criteria; […] (3) serum urate level of ≧8.0 mg/dL at the start of the double-blind study. The following were the criteria for exclusion from the study: […]

remnant kidney (RK) rats [2] = assay: Body weight, food and water intake in remnant kidney rats; assay type: in vivo, Male Wistar rats; details: for BW / BW Gain (from baseline): End of Week 4
Procedure: Male Wistar rats (295-340 g) were used to produce rats with remnant kidney (RK) as follows. […] Rats were then assigned to one of four treatment groups: Group 1, RK control rats (n=7); Group 2, RK+febuxostat (Fx) rats (n=8); Group 3, RK+oxonic acid (OA) rats (n=6); and Group 4, RK+OA+Fx (n=10). Oxonic acid (OA) (Sigma-Aldrich, St Louis Mo., USA), administered at 750 mg/kg body weight daily by oral gavage, was given starting the day after the ⅚ nephrectomy. Beginning immediately following the surgery, febuxostat was administered in drinking water at 30 mg/L (3-4 mg/kg/day), whereas the respective controls received only drinking water (with 3.5 mg/L of NaCl added to keep an equivalent salt concentration to the Fx-containing water). All groups were treated for four weeks. Body weight (beginning just before surgery) and food and water intakes were measured daily. Systolic blood pressure, measured in conscious rats by a tail cuff sphygmomanometer, and plasma uric acid (UA) levels were measured at just before surgery (namely, at baseline) and at the end of the four weeks. Proteinuria was measured at baseline and at the end of two and four weeks. A renal micropuncture procedure along with systemic blood pressure monitoring under pentobarbital anesthesia was performed at the end of four weeks followed by morphologic evaluation of the renal preglomerular microvasculature. Food and water intake were determined daily. Systolic blood pressure (SBP) was measured by a tail-cuff sphygmomanometer using an automated system (XBP-100; Kent Scientific Co, Torrington, Conn., USA) in conscious animals. All animals were preconditioned for blood pressure measurements one week before each experiment. Plasma uric acid was quantified using a commercial kit (Diagnostic Chemicals Ltd, Charlottetown, PEI, Canada). Proteinuria was determined by turbidimetry by the method of trichloroacetic acid as described in Henry R J et al., “Turbidimetric determination of proteins with sulfosalicylic and tricholoroacetic acids”, Proc Soc Exp Biol Med 92:748-751 (1956), the contents of which are herein incorporated by reference.

remnant kidney (RK) rats [3] = assay: Systolic blood pressure by tail cuff in conscious remnant kidney rats; assay type: in vivo, Male Wistar rats; details: all four groups, after four weeks; corroborated by mean arterial pressure under anesthesia
Procedure: Male Wistar rats (295-340 g) were used to produce rats with remnant kidney (RK) as follows. […] Rats were then assigned to one of four treatment groups: Group 1, RK control rats (n=7); Group 2, RK+febuxostat (Fx) rats (n=8); Group 3, RK+oxonic acid (OA) rats (n=6); and Group 4, RK+OA+Fx (n=10). Oxonic acid (OA) (Sigma-Aldrich, St Louis Mo., USA), administered at 750 mg/kg body weight daily by oral gavage, was given starting the day after the ⅚ nephrectomy. […] Body weight (beginning just before surgery) and food and water intakes were measured daily. Systolic blood pressure, measured in conscious rats by a tail cuff sphygmomanometer, and plasma uric acid (UA) levels were measured at just before surgery (namely, at baseline) and at the end of the four weeks. Proteinuria was measured at baseline and at the end of two and four weeks. […] Food and water intake were determined daily. Systolic blood pressure (SBP) was measured by a tail-cuff sphygmomanometer using an automated system (XBP-100; Kent Scientific Co, Torrington, Conn., USA) in conscious animals. […] Plasma uric acid was quantified using a commercial kit (Diagnostic Chemicals Ltd, Charlottetown, PEI, Canada). […]

remnant kidney (RK) rats [4] = assay: Renal arteriolar morphology; assay type: in vivo, Male Wistar rats
Procedure: Male Wistar rats (295-340 g) were used to produce rats with remnant kidney (RK) as follows. […] Rats were then assigned to one of four treatment groups: Group 1, RK control rats (n=7); Group 2, RK+febuxostat (Fx) rats (n=8); Group 3, RK+oxonic acid (OA) rats (n=6); and Group 4, RK+OA+Fx (n=10). Oxonic acid (OA) (Sigma-Aldrich, St Louis Mo., USA), administered at 750 mg/kg body weight daily by oral gavage, was given starting the day after the 5⁄6 nephrectomy. Beginning immediately following the surgery, febuxostat was administered in drinking water at 30 mg/L (3-4 mg/kg/day), whereas the respective controls received only drinking water (with 3.5 mg/L of NaCl added to keep an equivalent salt concentration to the Fx-containing water). After the micropuncture study, kidneys were washed by perfusion with phosphate-buffered saline and then fixed with 4% paraformaldehyde. Renal biopsies were embedded in paraffin. Sections of 4-μm thick fixed tissue were stained with periodic acid Schiff (PAS) reagent and Masson's trichrome staining. Arteriolar morphology was assessed by indirect peroxidase immunostaining for alpha-smooth muscle actin (DAKO Corp, Carpinteria, Calif., USA). Renal sections incubated with normal rabbit serum were used as negative controls for immunostaining against alpha smooth-muscle actin. For each arteriole, the outline of the vessel and its internal lumen (excluding the endothelium) were generated using computer analysis to calculate the total medial area (outline inline), in 10 arterioles per biopsy. The media/lumen ratio was calculated by the outline/inline relationship (See, Sanchez-Lozada L G et al., “Mild hyperuricemia induces glomerular hypertension in normal rats”, Am J Physiol Renal Physiol 283:[…]-[…] (2002); Sanchez-Lozada L G, et al., “Mild hyperuricemia induces vasoconstriction and maintains glomerular hypertension in normal and remnant kidney rats,” Kidney Int 67:237-247 (2005), the contents of each are herein incorporated by reference). Quantifications were performed blinded.

[5] = double-blind Wk 4, DB dose 40 mg/day
[6] = double-blind Wk 4, DB dose 80 mg/day
[7] = double-blind Wk 4, DB dose 120 mg/day
[8] = open-label Yr 1, OL dose 80 mg/day
[9] = open-label Yr 1, OL dose 120 mg/day
[10] = open-label Yr 2, OL dose 80 mg/day
[11] = open-label Yr 2, OL dose 120 mg/day
[12] = open-label Yr 3, OL dose 80 mg/day
[13] = open-label Yr 3, OL dose 120 mg/day
[14] = RK + OA + Fx group (OA-induced hyperuricemia)
[15] = RK + OA + Fx group (OA-induced hyperuricemia), Week 1
[16] = RK + OA + Fx group (OA-induced hyperuricemia), Week 2
[17] = RK + OA + Fx group (OA-induced hyperuricemia), Week 3
[18] = RK + OA + Fx group (OA-induced hyperuricemia), Week 4
[19] = RK rats (RK + Fx or RK + OA group)
[20] = RK rats (RK + Fx or RK + OA group), Week 1
[21] = RK rats (RK + Fx or RK + OA group), Week 2
[22] = RK rats (RK + Fx or RK + OA group), Week 3
[23] = RK rats (RK + Fx or RK + OA group), Week 4

Cc1nc(-c2ccc(OCC(C)C)c(C#N)c2)sc1C(=O)O [febuxostat, 2-[3-cyano-4-(2-methylpropoxy)phenyl]-4-methylthiazole-5-carboxylic acid]
Measured Creatinine Clearance [1, 5]: 82 mL/min and 56 mL/min | Serum Creatinine [1, 5]: 1.2 mg/dL and 1.3 mg/dL | Urine Uric Acid [1, 5]: 504 mg/day and 202 mg/day | Measured Creatinine Clearance [1, 6]: 103 mL/min and 147 mL/min and 93 mL/min and 88 mL/min and 63 mL/min and 64 mL/min and 94 mL/min | Serum Creatinine [1, 6]: 1.1 mg/dL (3×) and 1.2 mg/dL (3×) and 1.5 mg/dL | Urine Uric Acid [1, 6]: 387 mg/day and 504 mg/day and 319 mg/day and 286 mg/day and 235 mg/day and 185 mg/day and 403 mg/day | Measured Creatinine Clearance [1, 7]: 38 mL/min | Serum Creatinine [1, 7]: 1.4 mg/dL | Urine Uric Acid [1, 7]: 17 mg/day | Estimated GFR [1, 8]: 80 mL/min and 73 mL/min (2×) and 67 mL/min and 68 mL/min (2×) and 57 mL/min and 61 mL/min and 54 mL/min and 33 mL/min and 49 mL/min | Serum Creatinine [1, 8]: 1.1 mg/dL (2×) and 1.2 mg/dL (4×) and 1.4 mg/dL (2×) and 1.3 mg/dL and 1.6 mg/dL and 1.5 mg/dL | Serum Urate [1, 8]: 4.3 mg/dL and 5.9 mg/dL and 4.4 mg/dL (2×) and 6.1 mg/dL and 4.5 mg/dL and 6.4 mg/dL and 4.1 mg/dL and 3.6 mg/dL and 7.4 mg/dL and 4.6 mg/dL | Estimated GFR [1, 9]: 63 mL/min and 84 mL/min | Serum Creatinine [1, 9]: 1.2 mg/dL and 1.0 mg/dL | Serum Urate [1, 9]: 3.1 mg/dL and 4.6 mg/dL | Estimated GFR [1, 10]: 72 mL/min and 80 mL/min and 74 mL/min and 61 mL/min and 62 mL/min and 56 mL/min and 59 mL/min and 39 mL/min and 49 mL/min and 73 mL/min and 75 mL/min | Serum Creatinine [1, 10]: 1.2 mg/dL and 1.1 mg/dL (4×) and 1.3 mg/dL (3×) and 1.4 mg/dL (2×) and 1.5 mg/dL | Serum Urate [1, 10]: 4.1 mg/dL and 4.2 mg/dL and 4.8 mg/dL and 7.6 mg/dL and 6.4 mg/dL and 9.7 mg/dL and 5.4 mg/dL and 4.7 mg/dL and 6.0 mg/dL and 4.4 mg/dL and 5.7 mg/dL | Estimated GFR [1, 11]: 58 mL/min and 75 mL/min | Serum Creatinine [1, 11]: 1.3 mg/dL and 1.1 mg/dL | Serum Urate [1, 11]: 3.0 mg/dL and 4.2 mg/dL | Estimated GFR [1, 12]: 72 mL/min (2×) and 66 mL/min and 61 mL/min and 57 mL/min and 51 mL/min and 54 mL/min and 39 mL/min and 40 mL/min and 65 mL/min and 67 mL/min | Serum Creatinine [1, 12]: 1.2 mg/dL (5×) and 1.3 mg/dL and 1.4 mg/dL (3×) and 1.5 mg/dL and 1.8 mg/dL | Serum Urate [1, 12]: 5.8 mg/dL (2×) and 3.2 mg/dL and 3.9 mg/dL and 3.3 mg/dL and 7.5 mg/dL and 4.6 mg/dL and 3.8 mg/dL (2×) and 6.8 mg/dL and 5.2 mg/dL | Estimated GFR [1, 13]: 57 mL/min and 52 mL/min | Serum Creatinine [1, 13]: 1.3 mg/dL and 1.5 mg/dL | Serum Urate [1, 13]: 3.3 mg/dL and 3.8 mg/dL | Renal function throughout the study ([1]; subjects receiving febuxostat): maintained at generally stable levels | BW (remnant kidney (RK) rats [2]; [14]): 316.7 ± 12.3 g | BW Gain (from baseline) (remnant kidney (RK) rats [2]; [14]): -3.0 ± 11.5 g | Daily Food Intake (remnant kidney (RK) rats [2]; [15]): 8.7 ± 1.7 g | Daily Water Intake (remnant kidney (RK) rats [2]; [15]): 30.2 ± 2.8 mL | Daily Food Intake (remnant kidney (RK) rats [2]; [16]): 16.0 ± 0.7 g | Daily Water Intake (remnant kidney (RK) rats [2]; [16]): 40.6 ± 2.6 mL | Daily Food Intake (remnant kidney (RK) rats [2]; [17]): 18.4 ± 0.5 g | Daily Water Intake (remnant kidney (RK) rats [2]; [17]): 38.6 ± 1.0 mL | Daily Food Intake (remnant kidney (RK) rats [2]; [18]): 18.6 ± 0.5 g | Daily Water Intake (remnant kidney (RK) rats [2]; [18]): 40.5 ± 1.6 mL | BW (remnant kidney (RK) rats [2]; [19]): 340.6 ± 10.8 g | BW Gain (from baseline) (remnant kidney (RK) rats [2]; [19]): 18.4 ± 8.2 g | Daily Food Intake (remnant kidney (RK) rats [2]; [20]): 8.6 ± 1.5 g | Daily Water Intake (remnant kidney (RK) rats [2]; [20]): 31.5 ± 1.4 mL | Daily Food Intake (remnant kidney (RK) rats [2]; [21]): 15.4 ± 0.5 g | Daily Water Intake (remnant kidney (RK) rats [2]; [21]): 32.6 ± 1.2 mL | Daily Food Intake (remnant kidney (RK) rats [2]; [22]): 20.2 ± 0.5 g | Daily Water Intake (remnant kidney (RK) rats [2]; [22]): 37.2 ± 2.5 mL | Daily Food Intake (remnant kidney (RK) rats [2]; [23]): 22.4 ± 1.3 g | Daily Water Intake (remnant kidney (RK) rats [2]; [23]): 39.4 ± 1.6 mL | Water intake in RK rats during febuxostat treatment (in words) (remnant kidney (RK) rats [2]; RK rats, normal daily water intake 35-40 mL): reduced to near normal levels | Body weight or body weight gain between the four treatment groups (in words) (remnant kidney (RK) rats [2]; end of the study): no significant differences in body weight or body weight gain | Systolic blood pressure (in words) (remnant kidney (RK) rats [3]): developed systemic hypertension to approximately the same degree | Thickening of preglomerular vessels / afferent arteriole (in words) (remnant kidney (RK) rats [4]; RK rats vs RK control group): prevented the thickening of preglomerular vessels | Additional thickening of the afferent arteriole (in words) (remnant kidney (RK) rats [4]; RK+OA rats treated with febuxostat): prevented | Media/lumen (M/L) ratio (in words) (remnant kidney (RK) rats [4]; febuxostat-treated rats vs respective untreated cohorts): no statistically significant differences; also recorded: tendency for the M/L ratio to be lower
